Results on 4 compounds are retold here after ChEMBL document CHEMBL4477206, “Benzylpiperidine-Linked Diarylthiazoles as Potential Anti-Alzheimer's Agents: Synthesis and Biological Evaluation” (J Med Chem, 2016).

Data set [1] has as its target Cholinesterase (Equus caballus, UniProt P81908). Briefly: Inhibition of equine serum BuChE using BTCI as substrate preincubated for 30 mins followed by substrate addition measured after 30 mins by Ellman assay. A general note: Ellman's reagent forms a yellow product with free thiols.
The target of data set [2] is T1, Acetylcholinesterase (Homo sapiens, UniProt P22303). Briefly: Mixed inhibition of human erythrocyte AChE at 0.05 to 0.4 uM using ATCI as substrate preincubated for 30 mins followed by substrate addition measured after 30 mins by Lineweaver-Burk plot analysis.
T1 sequence (P22303 whole entry): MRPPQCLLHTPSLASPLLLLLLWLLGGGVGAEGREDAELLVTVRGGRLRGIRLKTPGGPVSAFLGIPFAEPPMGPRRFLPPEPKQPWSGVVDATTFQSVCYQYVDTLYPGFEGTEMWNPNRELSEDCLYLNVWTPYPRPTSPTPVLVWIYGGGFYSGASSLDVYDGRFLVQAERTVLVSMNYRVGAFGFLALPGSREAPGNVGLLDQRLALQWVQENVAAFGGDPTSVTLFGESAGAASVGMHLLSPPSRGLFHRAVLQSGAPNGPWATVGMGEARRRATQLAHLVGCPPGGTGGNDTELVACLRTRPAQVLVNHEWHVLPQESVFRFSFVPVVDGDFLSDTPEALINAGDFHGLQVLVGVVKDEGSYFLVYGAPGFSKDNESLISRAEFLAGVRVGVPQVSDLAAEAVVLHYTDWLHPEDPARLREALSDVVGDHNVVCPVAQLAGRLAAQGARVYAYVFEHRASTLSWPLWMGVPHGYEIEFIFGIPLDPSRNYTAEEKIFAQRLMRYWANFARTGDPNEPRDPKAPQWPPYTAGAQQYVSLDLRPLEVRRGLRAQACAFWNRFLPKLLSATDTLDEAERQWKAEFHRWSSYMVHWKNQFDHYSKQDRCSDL
Data set [3] is described as follows: Toxicity in Swiss albino mouse assessed as mortality at 677 to 2000 mg/kg, po for 14 days. In kind it is organism-based. The settings on record: in vivo, 336 h.
A short description of data set [4]: Toxicity in Swiss albino mouse assessed as changes in fur sleekness at 677 to 2000 mg/kg, po for 14 days. As to conditions: in vivo, 336 h. It is filed as organism-based.
Data set [5] in a line: Toxicity in Swiss albino mouse assessed as change in water and food consumption at 677 to 2000 mg/kg, po for 14 days. In kind it is organism-based. As to conditions: in vivo, 336 h.
A short description of data set [6]: Toxicity in Swiss albino mouse assessed as change in body weight at 677 to 2000 mg/kg, po for 14 days. In kind it is organism-based. As to conditions: in vivo, 336 h.
Data set [7] in a line: Toxicity in Swiss albino mouse assessed as heart damage at 677 to 2000 mg/kg, po treated for 14 days measured on 15th day post treatment. It is filed as organism-based. The settings on record: in vivo, 336 h.
The nature of data set [8]: Toxicity in Swiss albino mouse assessed as kidney damage at 677 to 2000 mg/kg, po treated for 14 days measured on 15th day post treatment. As to conditions: in vivo, 336 h. It is filed as organism-based.
Data set [9] is described as follows: Toxicity in Swiss albino mouse assessed as liver damage at 677 to 2000 mg/kg, po treated for 14 days measured on 15th day post treatment. In kind it is organism-based. The settings on record: in vivo, 336 h.
Data set [10] is described as follows: Cmax in Wistar rat at 5 mg/kg, po administered as a single dose by HPLC analysis. As to conditions: in vivo. Set-up: dose 5 mg/kg, route oral. It is filed as ADME, organism-based.
Data set [11] can be described thus: Tmax in Wistar rat at 5 mg/kg, po administered as a single dose by HPLC analysis. In kind it is ADME, organism-based. As to conditions: in vivo.
Data set [12] in a line: AUC(0 to 8 hrs) in Wistar rat at 5 mg/kg, po administered as a single dose by HPLC analysis. It is filed as ADME, organism-based. Also on record: time < 6 hr, dose 5 mg/kg, route oral. As to conditions: in vivo.
Data set [13] can be described thus: Terminal half life in Wistar rat at 5 mg/kg, po administered as a single dose by HPLC analysis. It is filed as ADME, organism-based. The settings on record: in vivo, read-out: beta t1/2 (converted).
The subject of data set [14] is Mus musculus. Briefly: Neuroprotective activity in Swiss albino mouse assessed as inhibition of scopolamine-induced elevation in MDA level in brain at 5 mg/kg, po administered 30 mins prior to scopolamine challenge administered for 9 days measured after 20 mins of compound incubation by TBARS assay relative to vehicle-treated control. In kind it is functional, organism-based.

Data set [15] relates to Mus musculus. Briefly: Neuroprotective activity in Swiss albino mouse assessed as elevation of scopolamine-induced decrease in catalase level in brain at 5 mg/kg, po administered 30 mins prior to scopolamine challenge administered for 9 days measured after 1 min of compound incubation by spectrophotometrical analysis relative to vehicle-treated control. It is filed as functional, organism-based.

The subject of data set [16] is Rattus norvegicus. The experiment in a line: Neuroprotective activity in Wistar rat brain hippocampus assessed as increase in Abeta (1 to 42) insult-induced decrease in spontaneous alterations at 5 mg/kg, po administered for 15 days measured for last 5 days of treatment by Y Maze assay. It is filed as functional, organism-based.
Data set [17] in a line: Permeability of the compound at 100 ug/ml incubated for 120 mins by PAMPA. In kind it is ADME. The settings on record: read-out: Peff.
The target of data set [18] is T1, Acetylcholinesterase. The settings on record: at 10 µM.
Description: Inhibition of human erythrocyte AChE-induced Abeta (1 to 42) aggregation at 10 uM incubated for 24 hrs by thioflavin-T fluorescence assay
The nature of data set [19]: in vitro. As to conditions: human, SH-SY5Y cells.
Description: Cytotoxicity against human SH-SY5Y cells assessed as cell viability at 40 uM after 24 hrs by MTT assay
A short description of data set [20]: in vitro. As to conditions: human, SH-SY5Y cells. This is another data set of the same source.
Description: Cytotoxicity against human SH-SY5Y cells assessed as cell viability at 80 uM after 24 hrs by MTT assay
The target of data set [21] is T1, Acetylcholinesterase. Briefly: Inhibition of human erythrocyte AChE using ATCI as substrate preincubated for 30 mins followed by substrate addition measured after 30 mins by Ellman assay.

The structures appear in SMILES notation. The source made the active and inactive calls. No cut-off for these calls is given here.

Cholinesterase, sequence (P81908 whole entry): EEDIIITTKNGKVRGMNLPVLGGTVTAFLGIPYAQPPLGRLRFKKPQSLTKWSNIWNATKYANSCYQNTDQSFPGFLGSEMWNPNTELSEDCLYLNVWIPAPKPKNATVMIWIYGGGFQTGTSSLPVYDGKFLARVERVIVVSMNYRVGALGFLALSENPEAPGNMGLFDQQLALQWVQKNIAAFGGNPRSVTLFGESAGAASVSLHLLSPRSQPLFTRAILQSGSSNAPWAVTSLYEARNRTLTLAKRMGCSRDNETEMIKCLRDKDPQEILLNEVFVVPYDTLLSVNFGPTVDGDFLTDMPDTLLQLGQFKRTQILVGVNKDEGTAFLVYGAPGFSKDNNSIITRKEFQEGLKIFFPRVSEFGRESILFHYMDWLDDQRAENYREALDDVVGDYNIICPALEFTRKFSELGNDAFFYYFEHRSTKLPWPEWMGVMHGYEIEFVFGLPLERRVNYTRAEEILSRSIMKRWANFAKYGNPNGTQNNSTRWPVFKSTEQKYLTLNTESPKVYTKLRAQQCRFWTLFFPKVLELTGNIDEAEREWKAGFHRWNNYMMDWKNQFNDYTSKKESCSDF

`Cc1ccc(-c2nc(NCC3CCN(Cc4cc(F)cc(F)c4)CC3)sc2-c2ccc(C)cc2)cc1` showed a half-maximal inhibitory concentration (IC50) in data set [1] of 1840 nM. The inhibition result in data set [2] was “Active”. Moreover, the Activity entry in [3], in data set [4], in [5], in data set [6], in data set [7] and in data set [8] was “Non-Toxic” throughout. In data set [9], the Activity entry is recorded as “Non-Toxic”. The same compound had a Cmax in [10] of 21.2 ng/mL. Also, the Tmax in data set [11] was determined as 3.66 h. Also, the area under the curve AUC(0-t) at 6 h in [12] is 587 ng·h/mL. The half-life in [13] was 19.4 h. The outcome in data set [14], in data set [15] and in data set [16] was Active. Besides, in [17], the Papp at 2 h, 100 ug/ml stood at 14.5 ×10⁻⁶ cm/s. In addition, the inhibition in data set [18] came to 27.6%. In data set [19], the viability at 24 h, 40 µM came out at 95.2%. Moreover, the viability at 24 h, 80 µM in data set [20] was found to be 91.3%.
Consider `O=C(Nc1nc(-c2ccc(Cl)cc2)c(-c2ccc(Cl)cc2)s1)C1CCN(Cc2cc(F)cc(F)c2)CC1`, for which the IC50 was 640 nM in [21] and 3030 nM in data set [1]. In data set [17], the Papp at 2 h, 100 ug/ml came out at 8.8 ×10⁻⁶ cm/s. Also, the inhibition in data set [18] was 12%. In [19], this compound showed a viability at 24 h, 40 µM of 95.6%. For the same compound, in [20], the viability at 24 h, 80 µM came out at 92.8%.
In the case of `Cc1ccc(-c2nc(NCC3CCN(Cc4ccc(F)cc4)CC3)sc2-c2ccc(C)cc2)cc1`, the IC50 was found to be 370 nM in data set [21] and 1950 nM in [1]. Further, the Papp at 2 h, 100 ug/ml in data set [17] stood at 10.1 ×10⁻⁶ cm/s. In [18], this compound gave an inhibition of 25.8%. Further, the viability at 24 h, 40 µM in data set [19] was 91.8%. In [20], the viability at 24 h, 80 µM was found to be 89.7%.
Regarding `Fc1ccc(CN2CCC(CNc3nc(-c4ccc(Cl)cc4)c(-c4ccc(Cl)cc4)s3)CC2)c(Cl)c1`, the IC50 in [21] stood at 520 nM; in data set [1], 740 nM. Also, in data set [17], the Papp at 2 h, 100 ug/ml amounted to 13.2 ×10⁻⁶ cm/s. This compound also came in with an inhibition in [18] of 15%. For the same compound, in data set [19], the viability at 24 h, 40 µM stood at 92.7%. In addition, the viability at 24 h, 80 µM in data set [20] worked out at 88.9%.

In general, IC50 refers to the midpoint of a concentration-inhibition curve. Low readings indicate inhibition by little substance, high ones a need for much substance. As usually defined, the inhibition is the drop in the measured response relative to a control, in per cent. In general, Cmax refers to the maximum level reached in the sampled fluid or tissue. By Tmax is commonly meant the time from dosing to the highest level. A word on the AUC(0-t): it is the area under the concentration-time curve up to a stated or last time point. A higher AUC(0-t) goes with high exposure. The term viability denotes a per cent measure of how many cells are alive, often set against a control.
